Source: US12427134B2, “Methods of reducing the risk of cardiovascular events in a subject with atrial fibrillation and/or atrial flutter” (priority 2019, dated 2025)

System: hypertriglyceridemic patients with cardiovascular disease or at high risk for cardiovascular disease
Assay: REDUCE-IT: subgroup analyses of the primary and key secondary endpoints
Format: in vivo, human
Settings: for Primary endpoint, patients with event (%) / Time to primary endpoint, HR (95% CI) AMR101/Placebo: ITT
Procedure: Exploratory Subgroup Analyses: Analyses of the effects that patients off study drug and withdrawn from study have on the primary endpoint were performed. Subgroup analyses of the primary and key secondary endpoints were performed as described for the primary endpoint. For each subgroup, Kaplan-Meier estimates, the log-rank test stratified by stratification factors used at randomization (except where the subgroup was a stratification factor), and HRs and CIs from the Cox proportional hazards model as specified for the primary efficacy endpoint, were summarized by treatment group. Demographic, disease, treatment, and baseline lipid and lipoproteins parameters were explored.
Demographic parameters included: Gender; age at baseline (<65 years and ≥65 years); race (white and nonwhite, or any other subset with at least 10% of the total number of patients); geographical region (Westernized, Eastern European, and Asia Pacific countries); and baseline ezetimibe use (yes/no).
Disease parameters included: CV risk category; the presence/absence of diabetes at baseline; and renal dysfunction at baseline (estimated glomerular filtration rate [eGFR]<60 mL/min/1.73 m^2) using the Chronic Kidney Disease Epidemiology Collaboration (CKD-EPI) equation as follows: eGFR=141×min(Scr/κ,1)^α×max(Scr/κ,1)^[…]^Age×1.018 [if female]×1.159 [if black]
Treatment Parameters included: Statin intensity at baseline (statin type and regimen); and statin intensity categories as defined in ACC/AHA Cholesterol Guidelines (Stone 2013) and patient's 10-year CV Risk Score (Goff 2013).
Baseline Lipid and Lipoprotein Parameter included: LDL-C (by tertile); HDL-C (by tertile, and tertile by gender); TG (by tertile, and tertile by gender); RLP-C (by tertile); TG ≥150 mg/dL and TG <150 mg/dL; TG ≥200 mg/dL and TG <200 mg/dL; TG ≥median, TG <median; combined highest tertile for TG and lowest tertile for HDL-C; gender-specific highest tertile for TG and lowest tertile for HDL-C; TG ≥200 mg/dL with HDL-C ≤35 mg/dL; hsCRP (≤3 mg/L and >3 mg/L) and by gender; hsCRP (≤2 mg/L and >2 mg/L) and by gender; Apo B (by tertile); non-HDL-C (by tertile); baseline hemoglobin A1c (Hb1c) value (<6.5%, ≥6.5%); baseline PAD; and baseline TG levels ≥150 mg/dL with high-density lipoprotein cholesterol (HDL-C) levels ≤40 mg/dL for males and ≤50 mg/dL for females.
A Cox proportional hazard (PH) model as mentioned above but additionally with baseline TG as a covariate were fitted to the data at each interim. Diagnostic plots for the PH assumption were evaluated. The consistency of the treatment effects in subgroups was assessed for the primary and key secondary efficacy endpoints. For each subgroup variable, a Cox PH model with terms for treatment, stratification factors (with the exception of those subgroup variables related to the stratification factors, i.e., CV risk category), subgroup, and treatment-by-subgroup interaction were performed. The main treatment effect was tested with this model. P-values for testing the interaction terms <0.15 were considered significant. Results were presented in a Forest plot.
Subgroup analyses of the primary and key secondary endpoints were performed as described for the primary endpoint. For each subgroup, Kaplan-Meier estimates, the log-rank test stratified by stratification factors used at randomization (except where the subgroup was a stratification factor), and HRs and CIs from the Cox proportional hazards model as specified for the primary efficacy endpoint, were summarized by treatment group. All subgroup analyses were conducted for the ITT, mITT and PP populations.
Of note regarding the following subgroup analyses, per study design, subgroup analyses are underpowered to detect statistically significant results within each individual subgroup, particularly when a subgroup represents less than 50% of the enrolled population, and when a subgroup has low event rates. […]

[1] = Overall (Males and Females), TG Lowest Tertile (≥81.25 to ≤190 mg/dL)
[2] = Overall (Males and Females), TG Middle Tertile (>190 to ≤250 mg/dL)
[3] = RLP-C (Derived) Highest Tertile (>34.30 to ≤105.86 mg/dL)
[4] = RLP-C (Derived) Lowest Tertile (≥11.89 to ≤28.09 mg/dL)
[5] = RLP-C (Derived) Middle Tertile (>28.09 to ≤34.30 mg/dL)
[6] = TG Lower Half (≥81.25 and ≤216 mg/dL)
[7] = TG Upper Half (>216 and ≤1401 mg/dL)
[8] = above or at the median baseline TG (>216 mg/dL)
[9] = baseline TG <150 mg/dL and HDL-C >40 mg/dL (males) or >50 mg/dL (females)
[10] = baseline TG ≥150 mg/dL and HDL-C ≤40 mg/dL (males) or ≤50 mg/dL (females)
[11] = below the median baseline TG (≥81.25 and ≤216 mg/dL)
[12] = females, middle tertile baseline TG (>186 to ≤241.5 mg/dL)
[13] = highest tertile baseline HDL-C (>43.5 to ≤107.5 mg/dL)
[14] = highest tertile baseline RLP-C (>34.30 to ≤105.86 mg/dL)
[15] = highest tertile baseline TG (>250 to ≤401 mg/dL)
[16] = highest tertile baseline TG and lowest tertile baseline HDL-C
[17] = history of peripheral artery disease
[18] = lowest tertile baseline HDL-C (≥17 to ≤36.5 mg/dL)
[19] = lowest tertile baseline RLP-C (≥11.89 to ≤28.09 mg/dL)
[20] = lowest tertile baseline TG (≥81.25 to ≤190 mg/dL)
[21] = middle tertile baseline HDL-C (>36.5 to ≤43.5 mg/dL)
[22] = middle tertile baseline RLP-C (>28.09 to ≤34.30 mg/dL)
[23] = middle tertile baseline TG (>190 to ≤250 mg/dL)
[24] = not in the highest tertile baseline TG and lowest tertile baseline HDL-C
[25] = primary prevention subgroup (CV risk category 2)
[26] = secondary prevention subgroup (CV risk category 1)
[27] = without atherogenic dyslipidemia
[28] = without history of peripheral artery disease

CC/C=C\C/C=C\C/C=C\C/C=C\C/C=C\CCCC(=O)OCC [AMR101, eicosapentaenoic acid ethyl ester]
Primary endpoint, patients with event (%) [1]: 16.9% | Time to primary endpoint, HR (95% CI) AMR101/Placebo [1]: 0.789 | Primary endpoint, patients with event (%) [2]: 18.0% | Time to primary endpoint, HR (95% CI) AMR101/Placebo [2]: 0.804 | Primary endpoint, patients with event (%) (PAD History - No): 16.3% | Time to primary endpoint, HR (95% CI) AMR101/Placebo (PAD History - No): 0.744 | Primary endpoint, patients with event (%) (PAD History - Yes): 26.6% | Time to primary endpoint, HR (95% CI) AMR101/Placebo (PAD History - Yes): 0.803 | Primary endpoint, patients with event (%) [3]: 17.8% | Time to primary endpoint, HR (95% CI) AMR101/Placebo [3]: 0.715 | Primary endpoint, patients with event (%) [4]: 17.1% | Time to primary endpoint, HR (95% CI) AMR101/Placebo [4]: 0.806 | Primary endpoint, patients with event (%) [5]: 16.8% | Time to primary endpoint, HR (95% CI) AMR101/Placebo [5]: 0.750 | Primary endpoint, patients with event (%) [6]: 17.3% | Time to primary endpoint, HR (95% CI) AMR101/Placebo [6]: 0.803 | Primary endpoint, patients with event (%) [7]: 17.2% | Time to primary endpoint, HR (95% CI) AMR101/Placebo [7]: 0.709 | Primary endpoint event, patients (US patients): 18.2% | Primary endpoint, HR (US patients): 0.687 | Primary endpoint event, patients [8]: 17.2% | Primary endpoint, HR [8]: 0.709 | Primary endpoint event, patients (atherogenic dyslipidemia (baseline TG ≥200 mg/dL and HDL-C ≤35 mg/dL)): 18.1% | Primary endpoint event, patients (baseline HbA1c <6.5%): 16.5% | Primary endpoint, HR (baseline HbA1c <6.5%): 0.793 | Primary endpoint event, patients (baseline HbA1c ≥6.5%): 18.1% | Primary endpoint, HR (baseline HbA1c ≥6.5%): 0.701 | Primary endpoint event, patients [9]: 18.2% | Primary endpoint, HR [9]: 0.842 | Primary endpoint event, patients [10]: 16.5% | Primary endpoint, HR [10]: 0.691 | Primary endpoint event, patients (baseline hsCRP >2 mg/L): 19.2% | Primary endpoint, HR (baseline hsCRP >2 mg/L): 0.813 | Primary endpoint event, patients (baseline hsCRP ≤2 mg/L): 15.0% | Primary endpoint, HR (baseline hsCRP ≤2 mg/L): 0.680 | Primary endpoint event, patients [11]: 17.3% | Primary endpoint, HR [11]: 0.803 | Primary endpoint event, patients [12]: 15.1% | Primary endpoint, HR [12]: 1.077 | Primary endpoint event, patients [13]: 15.9% | Primary endpoint, HR [13]: 0.812 | Primary endpoint event, patients [14]: 17.8% | Primary endpoint, HR [14]: 0.715 | Primary endpoint event, patients [15]: 16.9% | Primary endpoint, HR [15]: 0.675 | Primary endpoint event, patients [16]: 19.1% | Primary endpoint, HR [16]: 0.670 | Primary endpoint event, patients [17]: 26.6% | Primary endpoint, HR [17]: 0.803 | Primary endpoint event, patients [18]: 18.1% | Primary endpoint, HR [18]: 0.667 | Primary endpoint event, patients [19]: 17.1% | Primary endpoint, HR [19]: 0.806 | Primary endpoint event, patients [20]: 16.9% | Primary endpoint, HR [20]: 0.789 | Primary endpoint event, patients [21]: 17.6% | Primary endpoint, HR [21]: 0.800 | Primary endpoint event, patients [22]: 16.8% | Primary endpoint, HR [22]: 0.750 | Primary endpoint event, patients [23]: 18.0% | Primary endpoint, HR [23]: 0.804 | Primary endpoint event, patients (non-US patients): 16.7% | Primary endpoint, HR (non-US patients): 0.803 | Key secondary endpoint event, patients (non-white patients): 10.3% | Key secondary endpoint, HR (non-white patients): 0.554 | Primary endpoint event, patients [24]: 16.3% | Primary endpoint, HR [24]: 0.679 | Key secondary endpoint, point estimate of the HR (patients on statins of low intensity at baseline): 1.200 | Primary endpoint event, patients [25]: 12.2% | Primary endpoint, HR [25]: 0.876 | Primary endpoint event, patients [26]: 19.3% | Primary endpoint, HR [26]: 0.726 | Key secondary endpoint event, patients (white patients): 11.3% | Key secondary endpoint, HR (white patients): 0.758 | Primary endpoint event, patients [27]: 17.0% | Primary endpoint, HR [27]: 0.791 | Primary endpoint event, patients [28]: 16.3% | Primary endpoint, HR [28]: 0.744 | Key secondary endpoint event, patients (≥65 years subgroup): 13.9% | Key secondary endpoint, HR (≥65 years subgroup): 0.824 | Primary endpoint event, patients (≥65 years subgroup): 20.6% | Primary endpoint, HR (≥65 years subgroup): 0.873
